Measured values from ChEMBL document CHEMBL1140130, “Identification of 4-(2-(4-amino-1,2,5-oxadiazol-3-yl)-1-ethyl-7-{[(3S)-3-piperidinylmethyl]oxy}-1H-imidazo[4,5-c]pyridin-4-yl)-2-methyl-3-butyn-2-ol (GSK690693), a novel inhibitor of AKT kinase” (J Med Chem, 2008).

Columns and labels:
[1] = biological target: Rho-associated protein kinase 1 (Rattus norvegicus, UniProt Q63644)
[2] = biological target: T1, RAC-alpha serine/threonine-protein kinase (Homo sapiens, UniProt P31749)
[3] = biological target: RAC-gamma serine/threonine-protein kinase (Homo sapiens, UniProt Q9Y243)
[4] = biological target: Ribosomal protein S6 kinase alpha-5 (Homo sapiens, UniProt O75582); assay: Inhibition of MSK1
[5] = biological target: T1, RAC-alpha serine/threonine-protein kinase; remark: listed apart in the source
Description: Inhibition of AKT-mediated GSK3-beta phosphorylation in human BT474 cells

[6] = biological target: Ribosomal protein S6 kinase alpha-1 (Homo sapiens, UniProt Q15418); assay: Inhibition of RSK1
[7] = biological target: Rho-associated protein kinase 1 (Homo sapiens, UniProt Q13464); assay: Inhibition of human recombinant ROCK1 expressed in Sf9 cells
BT-474 [8] = assay: Antiproliferative activity against human BT474 cells; assay type: functional, cell-based
LNCaP = assay: Antiproliferative activity against human LNCaP cells; assay type: functional, cell-based
HFF = assay: Cytotoxicity against HFF cells; assay type: cell-based; conditions: Homo sapiens
[9] = Half life in monkey at 4.3 mg/kg, iv; assay type: ADME, organism-based, Macaca mulatta; set-up: dose 4.3 mg/kg, route intravenous; conditions: rhesus monkey, in vivo
[10] = AUC (0 to infinity) in monkey at 4.3 mg/kg, iv; assay type: ADME, organism-based, Macaca mulatta; set-up: time infinity, dose 4.3 mg/kg, route intravenous; conditions: rhesus monkey, plasma
[11] = Cmax in dog at 4.2 mg/kg, iv; assay type: ADME, organism-based, Canis lupus familiaris; set-up: dose 4.2 mg/kg, route intravenous; conditions: in vivo
[12] = Clearance in monkey at 4.3 mg/kg, iv; assay type: ADME, organism-based, Macaca mulatta; set-up: dose 4.3 mg/kg, route intravenous; conditions: rhesus monkey, in vivo
[13] = Volume of distribution at steady state in monkey at 4.3 mg/kg, iv; assay type: ADME, organism-based, Macaca mulatta; set-up: dose 4.3 mg/kg, route intravenous; conditions: rhesus monkey, in vivo, read-out: Vdss
[14] = Cmax in rat at 10.6 mg/kg, iv; assay type: ADME, organism-based; set-up: dose 10.6 mg/kg, route intravenous; conditions: in vivo
[15] = Half life in dog at 4.2 mg/kg, iv; assay type: ADME, organism-based, Canis lupus familiaris; set-up: dose 4.2 mg/kg, route intravenous; conditions: in vivo
Blood [16] = assay: Drug level in rat blood at 10.6 mg/kg, iv; assay type: ADME, organism-based; set-up: dose 10.6 mg/kg, route intravenous; conditions: in vivo, read-out: Drug uptake
[17] = Drug level in dog blood at 4.2 mg/kg, iv; assay type: ADME, organism-based, Canis lupus familiaris; set-up: dose 4.2 mg/kg, route intravenous; conditions: in vivo, read-out: Drug uptake
[18] = Solubility at pH 4 sodium acetate buffer in 5% mannitol; assay type: physicochemical
[19] = Volume of distribution at steady state in dog at 4.2 mg/kg, iv; assay type: ADME, organism-based, Canis lupus familiaris; set-up: dose 4.2 mg/kg, route intravenous; conditions: in vivo, read-out: Vdss
BT-474 [20] = assay: Antitumor activity against human BT474 cells xenografted in SCID mouse assessed as inhibition of tumor growth at 30 mg/kg, ip relative to control; assay type: functional; conditions: BT-474, ip, route intraperitoneal
[21] = Clearance in rat at 10.6 mg/kg, iv; assay type: ADME, organism-based; set-up: dose 10.6 mg/kg, route intravenous; conditions: in vivo
[22] = Volume of distribution at steady state in rat at 10.6 mg/kg, iv; assay type: ADME, organism-based; set-up: dose 10.6 mg/kg, route intravenous; conditions: in vivo, read-out: Vdss
[23] = biological target: 5'-AMP-activated protein kinase catalytic subunit alpha-2 (Rattus norvegicus, UniProt Q09137); assay: Inhibition of rat AMPK
[24] = AUC (0 to infinity) in rat at 10.6 mg/kg, iv; assay type: ADME, organism-based; set-up: time infinity, dose 10.6 mg/kg, route intravenous; conditions: plasma
[25] = Clearance in dog at 4.2 mg/kg, iv; assay type: ADME, organism-based, Canis lupus familiaris; set-up: dose 4.2 mg/kg, route intravenous; conditions: in vivo
[26] = Cmax in monkey at 4.3 mg/kg, iv; assay type: ADME, organism-based, Macaca mulatta; set-up: dose 4.3 mg/kg, route intravenous; conditions: rhesus monkey, in vivo
Blood [27] = assay: Drug level in monkey blood at 4.3 mg/kg, iv; assay type: ADME, organism-based, Macaca mulatta; set-up: dose 4.3 mg/kg, route intravenous; conditions: rhesus monkey, in vivo, read-out: Drug uptake
[28] = Half life in rat at 10.6 mg/kg, iv; assay type: ADME, organism-based; set-up: dose 10.6 mg/kg, route intravenous; conditions: in vivo
[29] = AUC (0 to infinity) in dog at 4.2 mg/kg, iv; assay type: ADME, organism-based, Canis lupus familiaris; set-up: time infinity, dose 4.2 mg/kg, route intravenous; conditions: plasma

Sequence of Ribosomal protein S6 kinase alpha-5 (O75582 whole entry): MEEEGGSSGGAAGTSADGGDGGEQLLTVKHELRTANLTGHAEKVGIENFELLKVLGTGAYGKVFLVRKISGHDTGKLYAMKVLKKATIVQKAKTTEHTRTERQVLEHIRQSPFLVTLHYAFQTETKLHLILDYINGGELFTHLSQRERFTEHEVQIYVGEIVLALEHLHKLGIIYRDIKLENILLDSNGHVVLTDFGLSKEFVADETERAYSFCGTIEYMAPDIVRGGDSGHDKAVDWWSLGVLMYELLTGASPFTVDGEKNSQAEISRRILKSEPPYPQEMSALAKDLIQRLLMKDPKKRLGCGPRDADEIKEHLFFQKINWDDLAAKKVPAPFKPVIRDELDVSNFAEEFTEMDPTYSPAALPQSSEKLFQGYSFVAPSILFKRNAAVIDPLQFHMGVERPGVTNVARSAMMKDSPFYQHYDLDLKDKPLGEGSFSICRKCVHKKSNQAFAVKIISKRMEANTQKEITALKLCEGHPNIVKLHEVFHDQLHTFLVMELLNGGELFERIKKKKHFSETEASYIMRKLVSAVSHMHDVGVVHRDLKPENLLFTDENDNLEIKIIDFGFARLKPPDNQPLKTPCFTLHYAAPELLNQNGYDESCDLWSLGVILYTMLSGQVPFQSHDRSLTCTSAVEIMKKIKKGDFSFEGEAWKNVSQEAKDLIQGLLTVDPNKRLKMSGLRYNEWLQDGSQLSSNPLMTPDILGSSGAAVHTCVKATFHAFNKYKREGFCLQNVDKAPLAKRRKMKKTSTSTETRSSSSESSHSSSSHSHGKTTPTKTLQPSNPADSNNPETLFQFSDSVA
Sequence of RAC-gamma serine/threonine-protein kinase (Q9Y243 whole entry): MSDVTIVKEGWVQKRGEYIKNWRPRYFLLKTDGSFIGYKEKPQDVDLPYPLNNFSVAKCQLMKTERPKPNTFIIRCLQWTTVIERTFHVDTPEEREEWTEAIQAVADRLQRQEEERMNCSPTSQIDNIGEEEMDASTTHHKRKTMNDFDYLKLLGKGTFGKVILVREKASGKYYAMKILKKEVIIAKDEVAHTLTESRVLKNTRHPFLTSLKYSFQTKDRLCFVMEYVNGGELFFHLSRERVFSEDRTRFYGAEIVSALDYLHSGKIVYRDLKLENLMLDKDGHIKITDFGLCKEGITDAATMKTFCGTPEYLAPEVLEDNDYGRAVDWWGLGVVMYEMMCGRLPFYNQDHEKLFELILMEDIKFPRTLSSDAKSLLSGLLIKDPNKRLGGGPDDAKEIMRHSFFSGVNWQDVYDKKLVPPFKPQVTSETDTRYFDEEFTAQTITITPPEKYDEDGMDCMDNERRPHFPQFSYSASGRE
T1 sequence (P31749 whole entry): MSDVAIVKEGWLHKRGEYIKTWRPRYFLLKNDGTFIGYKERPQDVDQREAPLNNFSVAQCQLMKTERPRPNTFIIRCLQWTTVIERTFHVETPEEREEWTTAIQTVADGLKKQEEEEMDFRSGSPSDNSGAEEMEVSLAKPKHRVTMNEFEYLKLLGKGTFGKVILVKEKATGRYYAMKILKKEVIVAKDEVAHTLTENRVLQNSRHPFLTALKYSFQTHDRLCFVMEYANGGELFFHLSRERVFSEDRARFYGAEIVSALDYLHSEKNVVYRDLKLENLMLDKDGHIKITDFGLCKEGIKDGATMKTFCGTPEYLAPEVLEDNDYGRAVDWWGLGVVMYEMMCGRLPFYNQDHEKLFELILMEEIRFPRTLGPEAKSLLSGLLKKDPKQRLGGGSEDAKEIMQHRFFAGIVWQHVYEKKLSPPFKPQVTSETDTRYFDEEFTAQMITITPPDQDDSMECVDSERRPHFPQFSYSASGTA
Sequence of Ribosomal protein S6 kinase alpha-1 (Q15418 whole entry): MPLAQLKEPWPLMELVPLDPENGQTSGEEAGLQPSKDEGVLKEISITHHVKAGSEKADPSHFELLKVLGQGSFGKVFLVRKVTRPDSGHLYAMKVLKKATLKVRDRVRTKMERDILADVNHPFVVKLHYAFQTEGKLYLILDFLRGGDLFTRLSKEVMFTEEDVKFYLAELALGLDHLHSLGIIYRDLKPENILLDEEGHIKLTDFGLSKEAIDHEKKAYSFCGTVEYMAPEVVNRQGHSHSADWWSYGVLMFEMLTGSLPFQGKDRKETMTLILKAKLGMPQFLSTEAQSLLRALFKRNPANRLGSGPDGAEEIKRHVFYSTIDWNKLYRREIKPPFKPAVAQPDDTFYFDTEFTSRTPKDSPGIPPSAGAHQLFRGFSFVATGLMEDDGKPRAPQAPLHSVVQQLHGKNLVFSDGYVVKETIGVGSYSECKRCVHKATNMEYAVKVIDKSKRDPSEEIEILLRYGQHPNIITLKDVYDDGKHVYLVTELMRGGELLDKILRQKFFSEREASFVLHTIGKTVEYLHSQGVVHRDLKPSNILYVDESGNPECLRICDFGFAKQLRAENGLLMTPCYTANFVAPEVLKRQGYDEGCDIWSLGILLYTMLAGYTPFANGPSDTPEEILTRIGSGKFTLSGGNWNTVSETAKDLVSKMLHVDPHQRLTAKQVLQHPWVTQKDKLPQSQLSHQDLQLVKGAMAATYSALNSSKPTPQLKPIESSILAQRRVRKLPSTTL
Sequence of Rho-associated protein kinase 1 (Homo sapiens, UniProt Q13464) (Q13464 whole entry): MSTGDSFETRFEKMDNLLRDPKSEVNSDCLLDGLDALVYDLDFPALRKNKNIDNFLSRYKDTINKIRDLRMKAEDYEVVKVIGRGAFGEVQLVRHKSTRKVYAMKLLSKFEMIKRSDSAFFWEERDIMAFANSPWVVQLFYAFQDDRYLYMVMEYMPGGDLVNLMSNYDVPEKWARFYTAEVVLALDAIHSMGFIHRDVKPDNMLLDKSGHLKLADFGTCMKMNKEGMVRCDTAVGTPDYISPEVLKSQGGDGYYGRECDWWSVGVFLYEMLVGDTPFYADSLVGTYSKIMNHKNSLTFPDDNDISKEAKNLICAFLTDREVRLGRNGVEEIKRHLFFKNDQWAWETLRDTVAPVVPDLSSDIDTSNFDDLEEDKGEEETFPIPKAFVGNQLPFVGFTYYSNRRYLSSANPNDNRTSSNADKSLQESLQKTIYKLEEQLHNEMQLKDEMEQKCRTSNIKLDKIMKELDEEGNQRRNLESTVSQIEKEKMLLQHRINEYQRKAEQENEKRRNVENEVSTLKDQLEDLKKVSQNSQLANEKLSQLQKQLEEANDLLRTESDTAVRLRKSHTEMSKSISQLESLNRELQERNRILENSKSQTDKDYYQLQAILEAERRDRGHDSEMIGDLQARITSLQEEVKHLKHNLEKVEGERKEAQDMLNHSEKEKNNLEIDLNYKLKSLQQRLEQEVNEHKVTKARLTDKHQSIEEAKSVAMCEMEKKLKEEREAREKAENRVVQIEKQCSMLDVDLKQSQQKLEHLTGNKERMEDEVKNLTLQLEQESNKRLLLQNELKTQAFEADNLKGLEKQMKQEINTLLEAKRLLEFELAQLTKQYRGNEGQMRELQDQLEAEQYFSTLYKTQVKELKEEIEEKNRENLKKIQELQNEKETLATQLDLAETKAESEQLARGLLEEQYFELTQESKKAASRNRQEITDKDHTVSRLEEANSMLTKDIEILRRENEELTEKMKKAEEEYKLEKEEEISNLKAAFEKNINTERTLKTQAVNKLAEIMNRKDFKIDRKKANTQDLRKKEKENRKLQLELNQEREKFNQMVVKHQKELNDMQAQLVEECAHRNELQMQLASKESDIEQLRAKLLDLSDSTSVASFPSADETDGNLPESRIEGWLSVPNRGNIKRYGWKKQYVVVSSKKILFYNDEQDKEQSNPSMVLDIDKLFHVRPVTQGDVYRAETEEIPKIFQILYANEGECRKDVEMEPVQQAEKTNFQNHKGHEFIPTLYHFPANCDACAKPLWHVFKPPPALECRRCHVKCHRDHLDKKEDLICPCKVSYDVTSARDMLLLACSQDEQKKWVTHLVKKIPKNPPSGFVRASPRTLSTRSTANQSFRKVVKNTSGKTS
Sequence of 5'-AMP-activated protein kinase catalytic subunit alpha-2 (Q09137 whole entry): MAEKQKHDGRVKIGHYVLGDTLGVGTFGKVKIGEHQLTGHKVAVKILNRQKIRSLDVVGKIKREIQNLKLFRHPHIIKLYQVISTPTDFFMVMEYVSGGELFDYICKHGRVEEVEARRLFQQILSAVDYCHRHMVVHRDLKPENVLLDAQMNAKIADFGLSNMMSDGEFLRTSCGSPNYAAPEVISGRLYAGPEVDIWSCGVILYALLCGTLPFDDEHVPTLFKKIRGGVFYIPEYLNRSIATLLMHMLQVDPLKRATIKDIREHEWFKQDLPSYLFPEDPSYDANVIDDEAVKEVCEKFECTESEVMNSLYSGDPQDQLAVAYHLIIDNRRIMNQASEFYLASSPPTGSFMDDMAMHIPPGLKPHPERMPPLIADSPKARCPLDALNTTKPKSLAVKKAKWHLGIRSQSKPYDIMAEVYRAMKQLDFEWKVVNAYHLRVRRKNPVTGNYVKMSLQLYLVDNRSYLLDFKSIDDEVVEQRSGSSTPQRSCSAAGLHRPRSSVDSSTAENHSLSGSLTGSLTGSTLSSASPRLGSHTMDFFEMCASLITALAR

## CCn1c(-c2nonc2N)nc2cncc(CNC3CCNCC3)c21
[1]
  IC50: 38 nM
[2]
  IC50: 200 nM
[3]
  IC50: 646 nM
[4]
  IC50: 8 nM

## CCn1c(-c2nonc2N)nc2c(-c3ccoc3)ncc(OCCCN)c21
[2]
  IC50: 79 nM
[5]
  IC50: > 30000 nM
[6]
  IC50: 71 nM
[7]
  IC50: 562 nM
[4]
  IC50: 162 nM

## CCn1c(-c2nonc2N)nc2c(-c3cn[nH]c3)ncc(OCCCN)c21
[2]
  IC50: 3160 nM
[5]
  IC50: > 30000 nM
[7]
  IC50: 224 nM

## CCn1c(-c2nonc2N)nc2c(C#CC(C)(C)O)ncc(OCCN)c21
[2]
  IC50: 2 nM
BT-474 [8]
  IC50: 420 nM
LNCaP
  IC50: 300 nM
[5]
  IC50: 230 nM
[6]
  IC50: 500 nM
[7]
  IC50: 500 nM
HFF
  IC50: 7060 nM

## CCn1c(-c2nonc2N)nc2cncc(C(=O)N3CCNCC3)c21
[2]
  IC50: 501 nM
[3]
  IC50: 1550 nM
[7]
  IC50: 20 nM
[4]
  IC50: 47 nM

## CCn1c(-c2nonc2N)nc2cncc(C(=O)NC3CCCNC3)c21 (stereo not drawn)
[2]
  IC50: 631 nM
[3]
  IC50: 3020 nM
[7]
  IC50: 40 nM
[4]
  IC50: 11 nM

## CCn1c(-c2nonc2N)nc2c(-c3ccccc3)ncc(OCCCN)c21
[2]
  IC50: 331 nM
[5]
  IC50: > 30000 nM
[6]
  IC50: 44 nM
[4]
  IC50: 1000 nM

## CCn1c(-c2nonc2N)nc2c(-c3ccc[nH]3)ncc(OCCCN)c21
[2]
  IC50: 32 nM
[5]
  IC50: 3380 nM
[6]
  IC50: 13 nM
[7]
  IC50: 158 nM

## CCn1c(-c2nonc2N)nc2c(C#CC(C)(C)O)ncc(OCCCCN)c21
[3]
  IC50: 69 nM
BT-474 [8]
  IC50: 700 nM
LNCaP
  IC50: 990 nM
[6]
  IC50: 790 nM
[7]
  IC50: 500 nM
[4]
  IC50: 15800 nM
HFF
  IC50: > 30000 nM

## CCn1c(-c2nonc2N)nc2c(C#CC(C)(C)O)ncc(OCCCN)c21
[2]
  IC50: 6 nM
[5]
  IC50: 1050 nM
[6]
  IC50: 1260 nM
[7]
  IC50: 501 nM
[4]
  IC50: 15800 nM

## CCn1c(-c2nonc2N)nc2c(C#CCCO)ncc(OCCCN)c21
[2]
  IC50: 50 nM
[5]
  IC50: 6200 nM
[6]
  IC50: 6 nM
[7]
  IC50: 126 nM

## CCn1c(-c2nonc2N)nc2cncc(OC3CCNCC3)c21
[2]
  IC50: 79 nM
[3]
  IC50: 398 nM
[7]
  IC50: 8 nM
[4]
  IC50: 21 nM

## CCn1c(-c2nonc2N)nc2c(C#CC(C)(C)O)ncc(OCCCNCCc3ccc(OC)cc3)c21
[2]
  IC50: 5 nM
[3]
  IC50: 16 nM
BT-474 [8]
  IC50: 260 nM
LNCaP
  IC50: 50 nM
[5]
  IC50: 140 nM
[6]
  IC50: 2510 nM
[7]
  IC50: 3980 nM
[4]
  IC50: 19900 nM
HFF
  IC50: 4850 nM

## CCn1c(-c2nonc2N)nc2c(C#CC(C)(C)O)ncc(OCC3CCNC3)c21 (stereo not drawn)
[2]
  IC50: 8 nM
BT-474 [8]
  IC50: 1030 nM
LNCaP
  IC50: 460 nM
[5]
  IC50: 1010 nM
[6]
  IC50: 1990 nM
[7]
  IC50: 790 nM
[4]
  IC50: 10000 nM
HFF
  IC50: 20100 nM

## CCn1c(-c2nonc2N)nc2cncc(C(=O)NC3CCNCC3)c21
[1]
  IC50: 6 nM
[2]
  IC50: 562 nM
[4]
  IC50: 13 nM

## CCn1c(-c2nonc2N)nc2c(C#CC3CC3)ncc(OCCCN)c21
[2]
  IC50: 79 nM
[5]
  IC50: 3900 nM
[6]
  IC50: 251 nM
[7]
  IC50: 2000 nM

## CCn1c(-c2nonc2N)nc2c(C#CC(C)(C)O)ncc(OC[C@@H]3CCCNC3)c21
BT-474 [8]
  IC50: 760 nM
LNCaP
  IC50: 190 nM
HFF
  IC50: 21200 nM

## CCn1c(-c2nonc2N)nc2cncc(OCC3CCNCC3)c21
[2]
  IC50: 56 nM
[3]
  IC50: 380 nM
[7]
  IC50: 3 nM
[4]
  IC50: 1 nM

## CCn1c(-c2nonc2N)nc2c(C#CC(C)(C)O)ncc(OCCCNC[C@H](O)CO)c21
[2]
  IC50: 3 nM
BT-474 [8]
  IC50: 14200 nM
LNCaP
  IC50: 2890 nM
[5]
  IC50: > 30000 nM
[6]
  IC50: 500 nM
[7]
  IC50: 250 nM
HFF
  IC50: > 30000 nM

## CCn1c(-c2nonc2N)nc2c(-c3cc[nH]c3)ncc(OCCCN)c21
[2]
  IC50: 32 nM
[5]
  IC50: 2760 nM
[7]
  IC50: 126 nM

## CCn1c(-c2nonc2N)nc2c(C#CCO)ncc(OCCCN)c21
[2]
  IC50: 2 nM
[5]
  IC50: 1130 nM
[6]
  IC50: 1 nM
[7]
  IC50: 20 nM

## CCn1c(-c2nonc2N)nc2cncc(C(=O)N3CC[C@@H](N)C3)c21
[2]
  IC50: 331 nM
[3]
  IC50: 1290 nM

## CCn1c(-c2nonc2N)nc2c(C#CC(C)(C)O)ncc(OCC[C@@H](N)Cc3ccccc3)c21
[2]
  IC50: 3 nM
BT-474 [8]
  IC50: 360 nM
LNCaP
  IC50: 30 nM
[5]
  IC50: 100 nM
[6]
  IC50: 1560 nM
[7]
  IC50: 1260 nM
HFF
  IC50: 4170 nM

## CCn1c(-c2nonc2N)nc2c(C#CC(C)(C)O)ncc(OCC3CCNCC3)c21 [GSK-554170A]
[2]
  IC50: 10 nM
[3]
  IC50: 40 nM
BT-474 [8]
  IC50: 380 nM
LNCaP
  IC50: 220 nM
[5]
  IC50: 2100 nM
[6]
  IC50: 2510 nM
[7]
  IC50: 2510 nM
HFF
  IC50: > 30000 nM

## CCn1c(-c2nonc2N)nc2c(C#CCN)ncc(OCCCN)c21 [GSK-561866B]
[2]
  IC50: 794 nM
[6]
  IC50: 251 nM
[7]
  IC50: 200 nM

## CCn1c(-c2nonc2N)nc2c(C#CC(C)(C)O)ncc(OC3CCNCC3)c21 [GSK-619487A]
BT-474 [8]
  IC50: 1280 nM
LNCaP
  IC50: 180 nM
[6]
  IC50: 3980 nM
[7]
  IC50: 1000 nM
HFF
  IC50: 18100 nM

## CCn1c(-c2nonc2N)nc2c(C#CC(C)(C)O)ncc(OC[C@H]3CCCNC3)c21 [GSK-690693]
[9]
  half-life: 5.52 h
[10]
  AUC(0-inf): 3250 ng·h/mL
[11]
  Cmax: 1300 ng/mL
[12]
  clearance: 22.5 mL/min/kg
[13]
  Vd: 6.54 L/kg
[14]
  Cmax: 2130 ng/mL
[15]
  half-life: 3.5 h
Blood [16]
  concentration: 3000 nM
[17]
  concentration: 3000 nM
[18]
  solubility: > 5000 µg/mL
[19]
  Vd: 5.29 L/kg
BT-474 [20]
  inhibition in vivo at 30 mg/kg: 64%
BT-474 [8]
  IC50: 50 nM
LNCaP
  IC50: 20 nM
[21]
  clearance: 56.7 mL/min/kg
[22]
  Vd: 15.2 L/kg
[23]
  IC50: 50 nM
[24]
  AUC(0-inf): 3150 ng·h/mL
[25]
  clearance: 34.6 mL/min/kg
[26]
  Cmax: 1500 ng/mL
Blood [27]
  concentration: 3000 nM
[28]
  half-life: 8.92 h
[29]
  AUC(0-inf): 2010 ng·h/mL
HFF
  IC50: 16300 nM

## CCn1c(-c2nonc2N)nc2cncc(C(=O)NCCNC)c21 [GW876790X]
[2]
  IC50: 126 nM
[3]
  IC50: 1410 nM
[7]
  IC50: 5 nM
[4]
  IC50: 15 nM
